The values below come from US12728132B2, “Inhibitors of the peptidyl-prolyl cis/trans isomerase (PIN1), combinations and uses thereof” (DANA-FARBER CANCER INSTITUTE, INC., priority 2021, dated 2026).

One assay concerns Pin1 in MDA-MB-231 cells. Briefly: Immunoblot of Pin1 inhibitor-induced Pin1 degradation with proteasome inhibitors. It is filed as cell-based, human. Conditions: MDA-MB-231, AApin 3 days; 10 μM MG132 or 1 μM bortezomib last 12 hrs. On the procedure: For IB analysis, cells were lysed in RIPA buffer (Thermo) supplemented with protease inhibitors (Sigma) and phosphatase inhibitors (Sigma). Protein concentrations were measured using Protein Assay Dye Reagent (Bio-Rad) and a Beckman Coulter. Equal amounts of protein were resolved by SDS-PAGE and probed with indicated antibodies. For immunoprecipitation analysis, cells were lysed in IP lysis buffer (Thermo) and pre-cleared by Mouse IgG-Agarose (Sigma) for 1 hour at 4° C. and then incubated with anti-Flag M2-Agarose (Sigma) for 2 hours at 4° C. The agaroses were washed four times with IP lysis buffer and boiled in standard Laemmli-Buffer with 5% final concentration of β-mercaptoethanol before being resolved by SDS-PAGE and immunoblotted with indicated antibodies.
Exploration of the intrinsic upstream regulators that could affect Pin1 protein stability was then sought.
(In western blotting, separated proteins are transferred to a membrane and probed.)

Assay [1] has as its target T1, Pin1 (Homo sapiens, UniProt Q13526). Briefly: NMR titration of Cdh1 phosphopeptide with Pin1. It is filed as binding. Conditions: NMR chemical shift perturbation, pH 6.6, 25° C. On the procedure: All NMR experiments were acquired on Bruker NEO 600 MHz spectrometer equipped with a TCI cryoprobe at 25° C. 0.1 mM ^13C, ^15N-enriched Pin1 sample dissolved in pH 6.6 buffer made-up of 20 mM Potassium Phosphate, 100 mM NaSO4 and 10% D2O was used to study peptide interaction. NMR assignments of Pin1 were taken from the BMRB database (accession number 27579) and confirmed using 3D-HNCA experiment. Synthetic peptides Cdh1-pS163 (comprised of Cdh1 residues 161-183 with phosphorylated Ser163 and isotope labeled Pro164, LR (pS)P(^13C, ^15N) […]) (SEQ ID NO: 27). were purchased from Pepmic. A systematic titration between Pin1 and phosphopeptide was performed by acquiring 2D-HSQC spectra. The absolute average chemical shift perturbation was calculated by using an equation, [(A8H2+ (A8N/5) 2)/2]½, available in software NMRFAM Sparky version 1.414.

Assay [2] concerns the target T1, Pin1. Briefly: Proline isomerization study by 13C-HSQC NMR. It is filed as biochemical. The source says: Commercially synthesized specific ^13C, ^15N-P164 labeled Cdh1 phosphopeptide was used to facilitate direct quantitative determination of the cis and trans proline populations. The strong ^13C-HSQC peaks originating from Pro164 can be easily distinguished from the weak peaks due to ~1% natural abundance ^13C present in the rest of the peptide. […] Based on the interpretation of the chemical shifts, the major peaks were assigned as trans isomer and the minor peaks were assigned as cis isomer (Schubert et al. J Biomol NMR 24, 149-154 (2002)). The proline resonance assignments were further confirmed using a 2D-^13C-HSQCTOCSY experiment while no attempts were made to stereospecifically assign proton resonances, thus the assignment of HB2 and HB3, HG2 and HG3, and HD2 and HD3 are interchangeable. 58 μM free peptide and its complex with a 4-fold molar excess of Pin1, dissolved in the above-mentioned NMR buffer were used to estimate the cis and trans isomer populations at 25° C.

Assay [3] concerns K14cre; p53^wt/f, Brca1^wt/f BT3 tumors. Briefly: Survival and tumor growth, FVB mice bearing BT3 tumors. Conditions: n=10 mice per group. It is filed as in vivo. The source says:
(§1) All animal experiments were approved by the IACUC of the Beth Israel Deaconess Medical Center. Maximum permitted the longest dimension of tumors was 20 mm. Pieces from breast tumors generated in K14cre; p53^f/f; Brca1^f/f or K14cre; p53^wt/f; Brca1^wt/f female mice were transplanted into the mammary pad of 6-week-old FVB female mice. For survival studies, treatments were started once the tumors reached 3-5 mm in diameter and continued until mice were symptomatic or tumors reached 20 mm in any direction, at which point mice were euthanized. For time point analysis, mice were sacrificed two weeks post-treatment initiation. Control and anti-PD-L1 antibody (clone 29E.2A3) treatments were conducted by intraperitoneal injection with a dosage of 200 μg per mouse every three days. sulfopin treatment was given by intraperitoneal injection with a dosage of 60 mg/kg (7 days/week), abemaciclib treatment was given by oral gavage with a dosage of 100 mg/kg (7 days/week), or drug combinations in which each compound was administered at the same dose and scheduled as a single agent. Tumor sizes were measured every three days by caliper after implantation and tumor volume was calculated by the modified ellipsoidal formula: tumor volume=½length×width^2. The investigators were not blinded to allocation during experiments and outcome assessment.

The subject of assay [4] is K14cre; p53^f/f; Brca1^f/f tumors. Briefly: Survival and tumor growth, Brca1-deficient immunocompetent TNBC mouse model. It is filed as in vivo. The note with it: mice bearing K14cre, n=6 per group.
Excerpt: as §1

Assay [5] has as its system K14cre; p53^wt/f; Brca1^wt/f tumors. Briefly: Survival and tumor growth, Brca1-proficient immunocompetent TNBC mouse model. The class given is in vivo. The note with it: mice bearing K14cre, n=10 per group.
Excerpt: as §1

For assay [6], the system named is K14cre; Brca1^+/−; p53^−/−-TNBC. Briefly: Survival until mandatory euthanasia, syngeneic FVB/N TNBC model with or without anti-PD-L1. The class given is in vivo. Conditions: syngeneic FVB/N mice, time to mandatory euthanasia (tumor size 2 cm). An excerpt:
All animal experiments were approved by the IACUC of the Beth Israel Deaconess Medical Center. Maximum permitted the longest dimension of tumors was 20 mm. Pieces from breast tumors generated in K14cre; p53^f/f; Brca1^f/f or K14cre; p53^wt/f; Brca1^wt/f female mice were transplanted into the mammary pad of 6-week-old FVB female mice. For survival studies, treatments were started once the tumors reached 3-5 mm in diameter and continued until mice were symptomatic or tumors reached 20 mm in any direction, at which point mice were euthanized. For time point analysis, mice were sacrificed two weeks post-treatment initiation. […] Tumor sizes were measured every three days by caliper after implantation and tumor volume was calculated by the modified ellipsoidal formula: tumor volume=½length×width^2. […]
A total of 86 FVB/N mice were grafted syngeneically with the K14cre; Brca1^+/−; p53″/tumors. […] Time to mandatory euthanasia (tumor size 2 cm) was recorded. […] Statistical significance was calculated using a two-sided log-rank test.

In assay [7] the test system is TNBC patient-derived xenograft (TM00096). Briefly: In vivo therapy for TNBC patient-derived xenografts (PDOX). Conditions: Rb-proficient TNBC PDOX, nude mice. Also on record: species or system human tumor in BALB/c nude mice. On the procedure:
All animal experiments were approved by the IACUC of the Beth Israel Deaconess Medical Center. Triple-negative BC patient-derived xenograft (TM00096) was purchased from Jackson Laboratories. Pieces from PDOX tumors were subcutaneously implanted into flank of 6-week-old BALB/c female nude mice. Tumor sizes were measured every three days by caliper after implantation and tumor volume was calculated by the modified ellipsoidal formula: tumor volume=½length×width^2. Treatments were started once the tumors reached 5 mm in diameter and continued until tumors reached 15 mm in any direction. […] Sulfopin treatment was given by intraperitoneal injection with a dosage of 40 mg/kg (dissolved solution: 5% DMSO in D5W, 7 days/week), palbociclib treatment was given by oral gavage with a dosage of 100 mg/kg (dissolved solution: saline, 5 days/week), abemaciclib treatment was given by oral gavage with a dosage of 100 mg/kg (dissolved solution: 0.5% CMC-Na, 5 days/week), or drug combinations in which each compound was administered at the same dose and scheduled as a single agent. […]
PDOX tumor tissue sections were boiled in 10 mM sodium citrate (pH 6.0), for antigen retrieval after deparaffinization. […] Slides were scanned at least three different representative areas at 20× magnification using BZ-X800 fluorescence microscope (KEYENCE).
A general note: Xenograft models place foreign cells or tissue in a host animal.

In the next assay the test system is MCF-7 cells. Briefly: Time-lapse single-cell tracking with APC-degron reporter. The class given is cell-based, human. The note with it: single living cells tracked, asynchronous MCF-7. How it is done:
MCF-7 cells were stably expressed with mCherry-Geminin (1-110) and a histone H2B-Turquoise. Cells were then plated 24 hours before starting the microscope acquisition. Pin1 inhibitors or CDK4/6 inhibitors were added in the medium and imaged using a Nikon Eclipse TE-2000 inverted microscope with a 10× Plan Apo objective and a Hammamatsu Orca ER camera, equipped with environmental chamber controlling temperature, atmosphere (5% CO2) and humidity. Images were acquired every 30 min using the MetaMorph Software. For each condition filmed, 4 different fields were selected.
p53Cinema single cell analysis package was used for semiautomatic tracking of individual cells in live cell imaging datasets as described previously (Reyes et al., Mol Cell 2018; 71:581-91 e5). Tracking data were then used to quantify intensity of fluorescent reporters from background subtracted images by averaging 10 pixels within the cell nucleus. Cells were tracked using only information about a constitutively expressed nuclear marker, such as H2B-Turquoise, and were thus blind to the dynamics of molecular players of interest, such as mCherry-Geminin. Only cells that remained within the field of view throughout the entire duration of the experiment were considered for downstream analyses. […] S/G2 durations were calculated by the time that cells spent in S/G2 phase after drugs were added.

Assay [8] deals with Cdh1 binding to Pin1 WW and PPIase domains. Briefly: GST-Pin1 pull-down of HA-Cdh1 after sulfopin treatment. The class given is cell-based, human. Conditions: MCF-7 cells expressing HA-Cdh1, sulfopin 3 days, 10 μM MG132 last 12 hrs. How it is done: GST pull-down was performed as described previously (Lee et al., Mol Cell 2011; 42:147-59). Briefly, cells were stably expressing indicated proteins and lysed in pull-down buffer (20 mM Tris pH 8.0, 150 mM NaCl, 1 mM EDTA pH 8.0, 0.5% Nonidet-P40). The cell extracts were pre-cleared by glutathione agarose beads and incubated with 1 μM GST or GST fusion proteins overnight at 4° C. Protein complexes were recovered on glutathione agarose beads for 2 hours at 4° C., washed four to six times with pull-down buffer and eluted by boiling in SDS-containing sample buffer. Bound proteins were resolved by SDS-PAGE.
To further define the molecular mechanism of Cdh1-mediated Pin1 degradation, the interaction of Pin1 and Cdh1 was examined using GST pull-down assays using GST-Pin1 point mutations. IB analysis of GST pull-down precipitates derived from 293T cells transfected with HA-Cdh1 and GST-Pin1 mutants as indicated for 36 hrs. The graphs were one representative experiment out of three independent experiments. […] FIG. 1K and FIG. 1L show the shift of Cdh1 binding from the WW− to the PPIase domain of Pin1 upon inhibition of PPIase activity. […] Bottom graphs quantification of IB analysis for bound HA-Cdh1. […]

The next assay relates to TNBC. Conditions: single agents; cited from earlier work.

*1 amine or outer side, *2 acyl side, *3 side chain or, on linkers, in order; H or OH if unused. Where a SMILES comes first, the peptide text is derived from it. Where no end group is shown, it is not given here. [ ]: non-standard residue; d: D form. The star is where a group is joined. Pro(13C,15N) = carbon and nitrogen isotope labeled proline, O=[13C]([13C@@H]1[13CH2][13CH2][13CH2][15N]1[*:1])[*:2]; pS = N[C@@H](COP(=O)(O)O)C(=O)O; Cbz = O=C(OCc1ccccc1)*

T1 sequence (Q13526 whole entry, the tested form may be a part): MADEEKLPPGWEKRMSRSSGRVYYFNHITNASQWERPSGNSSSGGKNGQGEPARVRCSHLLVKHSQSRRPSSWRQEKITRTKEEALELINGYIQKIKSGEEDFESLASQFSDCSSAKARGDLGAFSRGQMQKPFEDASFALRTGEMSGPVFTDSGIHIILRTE

As for `CC(C)C[C@H](NC(=O)[C@H](Cc1ccccc1)NC(=O)c1cnccn1)B(O)O` [bortezomib], the “Pin1 inhibitor-induced Pin1 degradation” value in the assay with Pin1 in MDA-MB-231 cells is “rescued”.

In the case of “Cdh1-pS163: Cdh1 residues 161-183 with phosphorylated Ser163 and isotope labeled Pro164 (SEQ ID NO: 27) (LR[pS][Pro(13C,15N)]RKPTRKISKIPFKVLDAPE)”, the “binding to the Pin1 WW domain” value in the assay with Pin1 [1] is recorded as “moderately strong affinity”. Moreover, the cis-P164 isomer population with Pin1 [2] (1:4 complex with Pin1, 25° C.) is 14.2%; with Pin1 [2] (free peptide, 58 μM, 25° C.) it was 7%.

For `CC(=O)c1c(C)c2cnc(Nc3ccc(N4CCNCC4)cn3)nc2n(C2CCCC2)c1=O` [palbociclib], the median survival in [3] is given as 21 days.

Consider `CC(C)(C)CN(C(=O)CCl)C1CCS(=O)(=O)C1` (centres unmarked) [sulfopin], for which the median survival in assay [4] was found to be 27 days; in assay [5], 25 days; in assay [3], 21 days; in assay [6], 22.5 days. The tumor growth entry in assay [7] is on record as “limited single agent activity”. The S/G2 duration entry in the assay with MCF-7 cells is on record as “strikingly prolonged S/G2 phases”. The “binding mode of Cdh1 to Pin1” value in [8] is on record as “shift from binding to the WW domain to the PPIase domain”.

In the case of `CN(C)C(=O)c1cc2cnc(Nc3ccc(N4CCNCC4)cn3)nc2n1C1CCCC1` [ribociclib], the “single agent activity in TNBC” value in the assay with TNBC is reported as “neither palbociclib nor ribociclib has activity in TNBC”.

As to `CCN1CCN(Cc2ccc(Nc3ncc(F)c(-c4cc(F)c5nc(C)n(C(C)C)c5c4)n3)nc2)CC1` [abemaciclib], the median survival was 31.5 days in [4], 25 days in [5] and 31 days in assay [6].

For the molecule `CC(C)C[C@@H](C=O)NC(=O)[C@H](CC(C)C)NC(=O)[C@H](CC(C)C)NC(=O)OCc1ccccc1` [MG132] (Cbz-Leu-Leu-Leu-aldehyde), in the assay on Pin1 in MDA-MB-231 cells, the “Pin1 inhibitor-induced Pin1 degradation” value is “rescued”.
